The values that follow come from patent US6969712B2, “Benzimidazole derivatives” (Banyu Pharmaceutical Co., Ltd., priority 2000, dated 2005).

The structures appear in SMILES notation. Structures can show the parent of a compound that is named as a salt.

Assay [1] deals with T1, nociceptin receptor ORL1 (Homo sapiens, UniProt P41146).
T1 construct: expressed in transfected cells
Briefly: Nociceptin receptor binding inhibition assay. As to conditions: inhibition of 50 pM [125I]Tyr14-Nociceptin binding to CHO/ORL1 cell membrane, SPA beads, 37° C., 60 minutes; read-out: IC50 value, nociceptin receptor binding inhibition action. Here is the method:
cDNA which codes a human nociceptin receptor gene (accession No.X77130) was cloned into an expression vector pCR3 (Invitrogen) to prepare pCR3/ORL1. Next, pCR3/ORL1 was transfected in CHO cells using a transfectam (Nippongene) following the directions in the manual appended to the reagent to obtain a stable expression strain (CHO/ORL1 cells) having resistance against 1 mg/ml concentration G418. A membrane fraction (a precipitate fraction obtained by an hour's centrifuge at 100,000 G of the supernatant resulting from 15 minutes' certrifuge at 10,000 G) was prepared from this stable expression strain to carry out a receptor binding assay.
Eleven (11) μg of the membrane, 50 pM [^125I] Tyr^14-Nociceptin (Amersham Pharmacia Biotech) (specific activity 2000 Ci/mmol), 1 mg Wheatgerm agglutinin SPA beads (PVT based; Amersham Pharmacia Biotech) and a test compound were suspended in an NC buffer (50 mM Hepes, 10 mM sodium chloride, 1 mM magnesium chloride, 2.5 mM calcium chloride, 0.1% BSA, 0.025% bacitracin, pH 7.4) and incubated at 37° C. for 60 minutes, and then the radioactivity was determined with Top Count (Packard). The binding activity to the nociceptin receptor was expressed by the 50% inhibition concentration (IC50 value) which was calculated from the inhibition activity to binding to ORL1 receptor of [^125I] Tyr^14-Nociceptin by the compounds of the present invention at various concentrations.

The target in assay [2] is T1, nociceptin receptor ORL1. Nature of the assay: Antagonism against nociceptin-elicited G protein activation (GTPγ[35S] binding). The assay is classed as biochemical. The following applies: GTPγ[35S] binding inhibition, CHO/ORL1 cell membrane, 50 nM nociceptin, 25° C., 150 minutes. Here is the method:
CHO cells which stably expressed a nociceptin receptor ORL1 were used to investigate the action of tested compounds against nociceptin-elicited G protein activation. A membrane prepared from the CHO/ORL1 cell, 50 nM nociceptin, 200 pM GTPγ[^35S](NEN), 1.5 mg Wheatgerm agglutinin SPA beads (PVT based; Amersham Pharmacia Biotech) and each of the tested compounds were mixed in a GDP buffer (20 mM Hepes, 100 mM sodium chloride, 10 mM magnesium chloride, 1 mM EDTA, 5 μM GDP, pH 7.4) and incubated at 25° C. for 150 minutes, and then the radioactivity was determined. The antagonism against nociceptin-elicited G protein activation was shown by the 50% inhibition concentration (IC50 value) which was calculated from GTP γ [^35S] binding inhibition activity of the compounds of the present invention at various concentrations. From the result it can be understood that the compounds of the invention have antagonism against nociceptin-elicited G protein activation via ORL1 receptor.

T1 sequence (P41146 whole entry): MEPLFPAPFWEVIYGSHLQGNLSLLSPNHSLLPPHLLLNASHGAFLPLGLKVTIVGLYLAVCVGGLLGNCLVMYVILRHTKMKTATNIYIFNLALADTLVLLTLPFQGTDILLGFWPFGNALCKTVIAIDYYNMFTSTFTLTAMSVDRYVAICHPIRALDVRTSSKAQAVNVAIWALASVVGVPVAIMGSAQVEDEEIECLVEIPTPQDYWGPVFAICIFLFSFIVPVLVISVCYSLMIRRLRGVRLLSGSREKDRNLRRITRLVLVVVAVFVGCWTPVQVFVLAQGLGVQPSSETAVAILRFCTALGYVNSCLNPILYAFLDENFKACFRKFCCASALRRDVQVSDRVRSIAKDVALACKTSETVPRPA

As to `CCC(CC)Sc1nc2cc(Cl)c(N3CCNCC3)cc2[nH]1` [Example 1, 5-chloro-2-[(1-ethylpropyl)sulfanyl]-6-(piperazin-1-yl) benzimidazole dihydrochloride], the values for the IC50 in assay [1] and in assay [2] were 2.1 nM and 9.1 nM, respectively.
The matching figures for `CC(CC(C)(C)C)Sc1nc2cc(N3CCNCC3)c(Cl)cc2[nH]1` (centres unmarked) [Example 26, 5-chloro-6-(piperazin-1-yl)-2-[(1,3,3-trimethylbutyl)-sulfanyl]benzimidazole dihydrochloride]: 1.3 nM and 5.3 nM.
In the case of `CCC(CC)Sc1nc2cc(Cl)c(N3CCN(CCO)CC3)cc2[nH]1` [Example 89, 5-chloro-2-[(1-ethylpropyl)sulfanyl]-6-[4-(2-hydroxyethyl)piperazin-1-yl]benzimidazole dihydrochloride], the IC50 in assay [1] stood at 6.5 nM; in assay [2], 6.8 nM.
For the molecule `CC(C)(CN1CCOCC1)Sc1nc2cc(N3CCN(CCO)CC3)c(Cl)cc2[nH]1` [Example 101, 5-chloro-2-[(1,1-dimethyl-2-morpholinoethyl)sulfanyl]-6-[4-(2-hydroxyethyl)piperazin-1-yl]benzimidazole trihydrochloride], the values for the IC50 in assay [1] and in assay [2] were 9.2 nM and 8 nM, respectively.
Regarding `Clc1cc2[nH]c(SCC3CCCCC3)nc2cc1N1CCN(CC2CC2)CC1` [Example 102, 5-chloro-2-[(cyclohexylmethyl)sulfanyl]-6-[4-(cyclopropylmethyl)piperazin-1-yl]benzimidazole], the IC50 in assay [1] was 3.5 nM.
As for `CC1(Sc2nc3c(F)c(N4CCN(CCO)CC4)c(Cl)cc3[nH]2)CCCC1` [Example 142, 5-chloro-7-fluoro-6-[4-(2-hydroxyethyl)piperazin-1-yl]-2-[(1-methylcyclopentyl)sulfanyl]benzimidazole], the IC50 in assay [1] stood at 0.95 nM; in assay [2], 0.57 nM.
The matching figures for `CCC(CC)COc1nc2cc(N3CCNCC3)c(Cl)cc2[nH]1` [Referential Example 1, 5-chloro-2-[(2-ethylbutyl)oxy]-6-(piperazin-1-yl)benzimidazole dihydrochloride]: 7 nM and 180 nM.
In the case of `CCCC(CC)Nc1nc2cc(N3CCNCC3)c(Cl)cc2[nH]1` (centres unmarked) [Referential Example 13, 5-chloro-2-[(1-ethylbutyl)amino]-6-(piperazin-1-yl)-benzimidazole dihydrochloride], the IC50 in assay [1] was found to be 430 nM.

The term IC50 denotes the midpoint of a concentration-inhibition curve.
